The test system of this assay is iNOS. Nature of the assay: iNOS expression in macrophages by quantitative ICC. The assay is classed as cell-based, mouse. The following applies: 24 hours treatment, then fAβ1-42 for 30 min; quantitative ICC (FIG. 16D). As for the experimental part: To test amyloid-β phagocytosis by macrophage, in repeated experiments monocytes were isolated from the bone marrow of wild-type mice (n=18 mice) and differentiated into macro-phage by 7-day cultivation in complete RPMI-1640 medium (#21870; Life Technologies) with 10% serum and 20 ng/ml MCSF (#315-02; PeproTech). Bone marrow-derived macrophages (MΦBM) were generated from femurs and tibiae cultured for 6-7 days in complete RPMI 1640 medium (Life Technologies) with 10% FBS, 100 U/ml penicillin, 100 μg/ml streptomycin, 2 mM L-glutamine and 20 ng/ml MCSF (PeproTech). Primary cultures of macrophage were then plated at 1.2×10^5 cells per well (3-4 wells for each condition) in 24-well tissue-culture plates on glass cover-slips overnight. […] The fluorescent signal and its total area were determined and quantified by the conversion of individual images to greyscale and standardizing to baseline using histogram-based thresholds with NIH ImageJ software. […]
The expression of inducible nitric oxide synthase (iNOS), a hallmark of the proinflammatory M1 macrophage phenotype, in different treatment groups was assessed next (FIG. 16C-16D). […] Quantitative ICC assays confirmed a significant ˜1.3-fold increase in iNOS expression by minocycline-treated macrophages, and a substantial 48% reduction in Aβ^1-42 phagocytosis. […]

Experimental findings from patent US11779600B2, “Methods of treating or preventing alzheimer's disease and associated conditions” (CEDARS-SINAI MEDICAL CENTER, priority 2016, dated 2023) are described below.

In the case of glatiramer acetate [GA], the “reduction of iNOS production” value is 28%.
